What was measured:
nAChR (alpha4/beta2) = molecular target: T1, nAChR (alpha4/beta2) (Homo sapiens, UniProt P17787+P43681); test: ion channel blockade panel; type: cell-based; settings: 5 μM
T1 construct: Eurofins (contract assay)
Description: (§1) In vitro profiling of LIT-001 was performed by Eurofins as described in the Eurofins SafetyScreen-Functional panel, 2018[31]. The hepatotoxicity of LIT-001 was studied with cryo-preserved mouse hepatocytes. After unfreezing (optiTHAW and optiINCUBATE media, Xenotech) and cell viability control, cells (2 × 10^6 cells/ml) were dispatched in 96 well microtiterplates. LIT-001 was added to reach a concentration 1 μM in the presence of 1 × 10^6 cells/mL in a volume of 100 μl/well. The incubation was stopped at 4, 20, 40, 80 and 120 min in adding 100 μl of acetonitrile at 0 °C. A positive control was treated in the same conditions. All samples were analyzed by UHPLC coupled to a mass spectrometer (Shimadzu LC-MS 8030).

Vav1.5 sodium channel = molecular target: T2, Vav1.5 sodium channel (Homo sapiens, UniProt Q14524); test: ion channel blockade panel; type: cell-based; settings: 5 μM
T2 construct: Eurofins (contract assay)
Description: as §1

[1] = molecular target: T3, GABAA (alpha1/beta2/gamma2) (Homo sapiens, UniProt P14867+P18507+P47870); test: ion channel blockade panel; type: cell-based; settings: 5 μM
T3 construct: Eurofins (contract assay)
T3 sequence (P14867 28-456): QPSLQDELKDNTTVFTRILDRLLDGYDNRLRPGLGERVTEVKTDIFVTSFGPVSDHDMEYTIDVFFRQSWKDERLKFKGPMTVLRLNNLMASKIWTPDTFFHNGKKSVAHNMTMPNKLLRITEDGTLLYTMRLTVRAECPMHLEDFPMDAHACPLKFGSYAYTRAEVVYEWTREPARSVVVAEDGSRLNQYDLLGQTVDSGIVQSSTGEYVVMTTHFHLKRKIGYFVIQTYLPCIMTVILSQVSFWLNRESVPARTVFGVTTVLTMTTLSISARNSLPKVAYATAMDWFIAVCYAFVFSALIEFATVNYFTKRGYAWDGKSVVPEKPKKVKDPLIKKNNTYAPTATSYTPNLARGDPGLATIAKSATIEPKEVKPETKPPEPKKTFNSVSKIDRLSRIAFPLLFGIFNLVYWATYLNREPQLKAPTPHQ
T3 sequence (P47870 25-512 limits assumed): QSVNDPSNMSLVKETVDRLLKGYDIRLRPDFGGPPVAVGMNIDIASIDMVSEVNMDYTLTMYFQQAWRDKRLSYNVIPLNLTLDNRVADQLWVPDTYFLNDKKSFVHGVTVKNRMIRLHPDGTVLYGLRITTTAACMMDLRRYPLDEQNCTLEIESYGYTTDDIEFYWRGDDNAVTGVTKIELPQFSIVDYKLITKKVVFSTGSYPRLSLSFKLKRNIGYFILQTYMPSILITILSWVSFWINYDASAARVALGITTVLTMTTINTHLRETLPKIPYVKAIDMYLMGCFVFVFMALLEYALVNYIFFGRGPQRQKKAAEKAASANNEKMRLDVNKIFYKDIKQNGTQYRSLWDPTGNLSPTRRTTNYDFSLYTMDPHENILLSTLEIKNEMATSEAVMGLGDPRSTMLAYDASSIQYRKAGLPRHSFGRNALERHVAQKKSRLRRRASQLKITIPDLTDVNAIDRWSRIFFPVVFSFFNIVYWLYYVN
T3 sequence (P18507 40-475): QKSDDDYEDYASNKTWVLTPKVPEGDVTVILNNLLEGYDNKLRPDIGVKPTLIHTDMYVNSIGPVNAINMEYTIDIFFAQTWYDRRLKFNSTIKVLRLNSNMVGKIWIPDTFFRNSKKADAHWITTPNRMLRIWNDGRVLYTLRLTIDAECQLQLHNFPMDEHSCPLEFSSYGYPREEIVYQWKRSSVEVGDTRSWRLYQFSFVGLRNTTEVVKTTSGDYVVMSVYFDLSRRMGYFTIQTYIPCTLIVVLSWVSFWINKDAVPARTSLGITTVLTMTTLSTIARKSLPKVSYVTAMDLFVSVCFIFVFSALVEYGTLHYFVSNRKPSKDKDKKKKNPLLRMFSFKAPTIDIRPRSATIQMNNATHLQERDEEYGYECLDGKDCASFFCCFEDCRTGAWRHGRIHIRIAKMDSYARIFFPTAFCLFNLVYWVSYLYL
Description: as §1

[2] = molecular target: T4, human hERG potassium channel (Homo sapiens, UniProt Q12809); test: ion channel blockade panel; type: cell-based; settings: 5 μM
T4 construct: Eurofins (contract assay)
Description: as §1

[3] = lipophilicity LogD7.4 (octanol/PBS); type: physicochemical; settings: experimental, octanol/PBS pH 7.4
Description: Solubility of LIT-001 was determined from solution of about 1 mg of compound in 500 μl of PBS at pH 7.4. (Figs. 1, S1) The solution was stirred at room temperature for 24 h and centrifuged at 15.000 × g for 5 min. The supernatant was diluted with a mixture of acetonitrile and water and analyzed by HPLC with a diode detector (Gilson; Kinetex 2.6 μm C18 100 A 50 × 4.6 mm column). […] The lipophilicity (LogD7.4) of LIT-001 was measured using […] of a stock solution diluted with different concentrations of octanol and PBS to cover a LogP range from −2 to + 4.5 in a final volume of 1 ml. After stirring for 1 h at room temperature (≈ 20 °C), the samples were centrifuged and the different phases were analyzed by HPLC (Gilson; diode detector, Kinetex 2.6 μ C18 100 A 50 × 4.6 mm column).

[4] = system: V2 vasopressin receptor (V2R); set-up: method as in PMID 30199637; settings: cited from earlier work
mOTR = system: mOTR; set-up: method as in PMID 30199637; settings: mouse receptor, cited from earlier work
[5] = system: CFA-induced mechanical hyperalgesia; test: mechanical sensitivity, calibrated forceps, CFA model; type: in vivo; settings: rat
Description: LIT-001 was prepared as described in Frantz et al.[20]. […] LIT-001 or vehicle were injected intraperitoneally (i.p.), in a volume of 10 ml/kg[20], 24 h after the induction of the CFA-induced painful inflammatory sensitization. To confirm the implication of the OTR we injected (i.p.) also L-368,899 (Sigma, St. Louis, MO) (1 mg/kg), an OTR antagonist, in combination with LIT-001 in another group of rats[11].
Male Wistar rats (300 g; JANVIER LABS, Le Genest St. Isle, France) were used for this study. They were housed by groups of 3 or 4 under standard conditions (room temperature, 22 °C; 12/12 h light/dark cycle) with ad libitum access to food and water and behavioral enrichment. All animals were manipulated and habituated to the tests and to the room for at least 2 weeks. All behavioral tests were done during the light period (i.e., between 7:00 and 19:00). All the procedures were performed in accordance with European committee council Direction, authorization from French Department of Agriculture and from the regional ethic committee.
In all experimentations, to test the animal mechanical sensitivity, we used a calibrated forceps (Bioseb, Chaville, France) previously developed in our laboratory (Figs. 2, 3 and S2, S3)[32]. Briefly, the habituated rat is loosely restrained with a towel masking the eyes in order to limit stress by environmental stimulations. The tips of the forceps are placed at each side of the paw and a graduate force is applied. The pressure producing a withdrawal of the paw, or in some rare cases a vocalization of the animal, corresponded to the nociceptive threshold value. This manipulation was performed three times for each hindpaw and the values were […].
In order to induce a peripheral inflammation, 100 μl of complete Freund adjuvant (CFA; Sigma, St. Louis, MO), was injected in the right hindpaw of the rat. All CFA injections were performed under light isoflurane anesthesia (3%).

hOTR = system: hOTR; set-up: method as in PMID 30199637; settings: human receptor, cited from earlier work
hERG = hERG (Homo sapiens, UniProt Q12809); test: hERG inhibition, patch clamp method; type: cell-based
hERG, sequence (Q12809 whole entry): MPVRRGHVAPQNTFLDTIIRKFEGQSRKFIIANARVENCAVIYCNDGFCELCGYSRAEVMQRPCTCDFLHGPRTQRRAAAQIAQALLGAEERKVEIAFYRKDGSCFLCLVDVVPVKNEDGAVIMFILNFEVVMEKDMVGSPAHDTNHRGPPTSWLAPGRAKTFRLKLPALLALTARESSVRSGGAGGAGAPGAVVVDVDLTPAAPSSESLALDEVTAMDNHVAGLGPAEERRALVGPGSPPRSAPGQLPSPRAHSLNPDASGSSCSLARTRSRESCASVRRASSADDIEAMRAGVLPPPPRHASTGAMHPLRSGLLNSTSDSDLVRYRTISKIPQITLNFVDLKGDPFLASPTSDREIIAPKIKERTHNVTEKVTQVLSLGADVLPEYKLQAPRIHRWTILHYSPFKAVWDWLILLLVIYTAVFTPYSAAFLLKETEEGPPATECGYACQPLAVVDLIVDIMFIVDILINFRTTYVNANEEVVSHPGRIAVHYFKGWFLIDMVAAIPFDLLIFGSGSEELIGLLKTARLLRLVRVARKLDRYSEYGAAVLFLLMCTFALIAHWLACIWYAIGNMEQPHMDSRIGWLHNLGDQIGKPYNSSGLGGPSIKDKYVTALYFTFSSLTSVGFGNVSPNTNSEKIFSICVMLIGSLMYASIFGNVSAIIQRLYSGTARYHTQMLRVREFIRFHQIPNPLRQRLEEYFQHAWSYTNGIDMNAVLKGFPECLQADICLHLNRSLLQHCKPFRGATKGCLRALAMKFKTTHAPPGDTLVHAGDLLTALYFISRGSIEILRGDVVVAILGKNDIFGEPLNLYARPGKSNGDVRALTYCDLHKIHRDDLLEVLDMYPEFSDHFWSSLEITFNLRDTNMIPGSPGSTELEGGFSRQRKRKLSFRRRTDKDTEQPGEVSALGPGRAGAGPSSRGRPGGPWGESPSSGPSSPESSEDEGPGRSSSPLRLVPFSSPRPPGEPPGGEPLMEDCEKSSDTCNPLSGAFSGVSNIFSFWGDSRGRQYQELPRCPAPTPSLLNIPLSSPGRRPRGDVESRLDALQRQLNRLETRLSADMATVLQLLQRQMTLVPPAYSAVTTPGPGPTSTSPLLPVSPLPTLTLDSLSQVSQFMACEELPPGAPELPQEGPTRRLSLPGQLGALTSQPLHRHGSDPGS

[6] = molecular target: T5, noradrenaline transporter (Rattus norvegicus, UniProt Q63380); test: uptake inhibition, rat brain synaptosomes; type: biochemical; settings: 5 μM
T5 construct: transporters from rat brain synaptosomes; tissue Eurofins (contract assay); host or cells: rat brain synaptosomes
T5 sequence (Q63380 1-617): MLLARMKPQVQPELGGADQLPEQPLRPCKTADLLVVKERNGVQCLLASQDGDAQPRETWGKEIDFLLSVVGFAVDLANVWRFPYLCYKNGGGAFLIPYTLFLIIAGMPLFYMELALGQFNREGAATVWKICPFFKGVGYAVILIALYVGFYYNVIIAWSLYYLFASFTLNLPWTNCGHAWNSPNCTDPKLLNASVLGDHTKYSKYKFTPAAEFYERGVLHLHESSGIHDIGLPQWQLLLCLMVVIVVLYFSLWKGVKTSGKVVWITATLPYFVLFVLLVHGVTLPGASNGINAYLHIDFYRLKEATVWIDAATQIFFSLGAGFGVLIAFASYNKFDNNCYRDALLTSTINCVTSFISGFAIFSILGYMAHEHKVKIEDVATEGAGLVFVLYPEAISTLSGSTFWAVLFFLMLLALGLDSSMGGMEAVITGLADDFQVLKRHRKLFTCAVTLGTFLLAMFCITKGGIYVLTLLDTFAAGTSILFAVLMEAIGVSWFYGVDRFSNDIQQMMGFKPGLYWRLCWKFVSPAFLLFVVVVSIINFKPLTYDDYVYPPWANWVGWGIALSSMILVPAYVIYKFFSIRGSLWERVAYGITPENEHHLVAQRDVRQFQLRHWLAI
Description: as §1

dopamine transporter = molecular target: T6, dopamine transporter (Rattus norvegicus, UniProt P23977); test: uptake inhibition, rat brain synaptosomes; type: biochemical; settings: 5 μM
T6 construct: transporters from rat brain synaptosomes; tissue Eurofins (contract assay); host or cells: rat brain synaptosomes
T6 sequence (P23977 whole entry): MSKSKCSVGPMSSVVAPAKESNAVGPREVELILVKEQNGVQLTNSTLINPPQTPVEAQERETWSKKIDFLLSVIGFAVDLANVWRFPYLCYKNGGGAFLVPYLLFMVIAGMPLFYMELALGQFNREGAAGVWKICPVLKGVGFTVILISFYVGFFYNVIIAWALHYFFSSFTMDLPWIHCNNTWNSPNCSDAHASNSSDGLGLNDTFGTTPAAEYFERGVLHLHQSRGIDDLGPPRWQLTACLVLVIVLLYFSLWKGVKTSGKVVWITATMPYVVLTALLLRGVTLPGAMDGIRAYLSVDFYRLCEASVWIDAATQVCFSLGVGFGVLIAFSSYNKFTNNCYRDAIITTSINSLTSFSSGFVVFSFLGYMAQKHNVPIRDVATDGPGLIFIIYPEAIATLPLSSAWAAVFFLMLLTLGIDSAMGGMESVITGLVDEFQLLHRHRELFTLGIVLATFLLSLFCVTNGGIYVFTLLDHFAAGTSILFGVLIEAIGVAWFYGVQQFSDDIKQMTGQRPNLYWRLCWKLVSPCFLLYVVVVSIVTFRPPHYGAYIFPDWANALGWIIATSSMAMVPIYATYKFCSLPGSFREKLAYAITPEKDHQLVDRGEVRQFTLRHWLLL
Description: as §1

serotonin transporter = molecular target: T7, serotonin transporter (Rattus norvegicus, UniProt P31652); test: uptake inhibition, rat brain synaptosomes; type: biochemical; settings: 5 μM
T7 construct: transporters from rat brain synaptosomes; tissue Eurofins (contract assay); host or cells: rat brain synaptosomes
Description: as §1

[7] = i.p., D1 after CFA, measured 1 hour after injection

T1 sequence (P43681 29-627 limits assumed): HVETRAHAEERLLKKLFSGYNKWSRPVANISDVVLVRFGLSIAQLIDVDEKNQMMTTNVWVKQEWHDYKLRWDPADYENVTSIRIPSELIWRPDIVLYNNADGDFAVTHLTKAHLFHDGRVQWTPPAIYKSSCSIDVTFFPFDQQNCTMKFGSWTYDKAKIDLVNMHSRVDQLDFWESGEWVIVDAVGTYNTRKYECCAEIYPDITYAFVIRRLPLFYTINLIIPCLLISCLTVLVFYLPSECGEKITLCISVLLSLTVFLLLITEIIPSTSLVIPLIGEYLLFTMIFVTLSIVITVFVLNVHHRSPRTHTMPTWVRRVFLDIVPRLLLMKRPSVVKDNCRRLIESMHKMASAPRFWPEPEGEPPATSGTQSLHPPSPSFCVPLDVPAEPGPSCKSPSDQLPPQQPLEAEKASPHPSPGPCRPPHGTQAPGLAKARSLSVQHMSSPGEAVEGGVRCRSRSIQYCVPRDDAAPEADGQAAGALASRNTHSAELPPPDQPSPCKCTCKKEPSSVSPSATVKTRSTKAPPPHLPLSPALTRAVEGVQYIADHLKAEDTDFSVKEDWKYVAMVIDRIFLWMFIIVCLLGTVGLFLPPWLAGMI
T1 sequence (P17787 26-502): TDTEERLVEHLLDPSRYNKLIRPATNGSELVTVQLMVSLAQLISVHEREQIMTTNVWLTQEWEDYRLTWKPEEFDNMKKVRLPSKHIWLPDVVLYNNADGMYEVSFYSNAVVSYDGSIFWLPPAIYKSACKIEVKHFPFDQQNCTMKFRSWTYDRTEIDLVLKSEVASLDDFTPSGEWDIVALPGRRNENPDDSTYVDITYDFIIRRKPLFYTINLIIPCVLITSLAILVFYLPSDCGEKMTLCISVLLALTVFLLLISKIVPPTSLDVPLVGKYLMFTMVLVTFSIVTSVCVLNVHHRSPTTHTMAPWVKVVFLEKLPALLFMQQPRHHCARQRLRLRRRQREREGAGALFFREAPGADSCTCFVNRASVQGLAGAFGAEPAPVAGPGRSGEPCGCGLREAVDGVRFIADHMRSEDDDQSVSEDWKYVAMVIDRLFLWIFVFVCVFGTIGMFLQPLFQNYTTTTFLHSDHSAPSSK

With `Cc1cc(C(=O)N2Cc3cnn(C)c3Nc3ccccc32)ccc1CNC(=O)N1CCC[C@H]1C(=S)N(C)C` [LIT-001] the “nAChR (alpha4/beta2) channel blockade” value (nAChR (alpha4/beta2)) was “no significant blockade activity”, the “Vav1.5 sodium channel blockade” value (Vav1.5 sodium channel) was “no significant blockade activity” and the “GABAA (alpha1/beta2/gamma2) channel blockade” value [1] was “no significant blockade activity”. For the same molecule, the “hERG potassium channel blockade” value [2] was “no significant blockade activity”, the logD [3] was 2 ± 0.3 and the “affinity for V2R” value [4] was “low micromolar affinity”. For the same molecule, the EC50 (mOTR; agonist) was 18 nM, the “Emax (mOTR)” value (mOTR; efficacy) was 95% and the “mechanical threshold, NaCl-injected hindpaw (control animals)” value ([5]; 10 mg/kg i.p.) was 526 ± 20 g. The “mechanical threshold, hindpaw contralateral to CFA (cCFA)” value ([5]; 10 mg/kg i.p.) was 531 ± 25 g, the “antinociceptive action on contralateral hindpaw” value ([5]; 0.1-15 mg/kg i.p., mechanical and thermal heat, 1 hour after injection) was “none of the doses tested seem to exert an antinociceptive action” and the “relative-to-baseline AUC, mechanical threshold, CFA-injected hindpaw” value ([5]; i.p. LIT-001 10 mg/kg at D1 after CFA) was 152 ± 11%. For the same molecule, the “mechanical threshold, CFA-injected hindpaw” value ([5]; i.p. LIT-001 10 mg/kg at D1 after CFA, 3 h post i.p.) was 246 ± 22 g, the “dose at which analgesic effect reaches a plateau, mechanical hypersensitivity” value [5, 7] was 10 mg/kg and the “dose of first analgesic action, mechanical hypersensitivity” value [5, 7] was 5 mg/kg. The EC50 (hOTR; agonist) was 25 nM, the “Emax (hOTR)” value (hOTR; efficacy) was 96% and the inhibition at 1 µM (hERG; 1 μM) was 9.5%. For the same molecule, the inhibition at 10 µM (hERG; 10 μM) was 10.6%, the noradrenaline uptake blockade [6] was “no significant uptake blockade” and the dopamine uptake blockade (dopamine transporter) was “no significant uptake blockade”. For the same molecule, the serotonin uptake blockade (serotonin transporter) was “no significant uptake blockade”.

Reference: paper PMC7033278, “A Nonpeptide Oxytocin Receptor Agonist for a Durable Relief of Inflammatory Pain” (Scientific Reports, 2020)
